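Where inhibition never reached the appropriate level, the endpoint shown equals the highest concentration tested. Otherwise, values were interpolated linearly from a five-concentration, 48-hour dose response in 96-well plates. Abbreviation: GI50, concentration required for 50% inhibition of growth.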 Activity calls are given as the source filed them. Cut-off read from the data, not from the text of the source: active = GI50 up to about 1.1 µM and inactive = higher.
Experiments:
Assay in all cases: NCI anticancer screen, dose series, 48 h
PC-3 = tested on: PC-3
HOP-92 = tested on: HOP-92
RPMI-8226 = tested on: RPMI-8226
KM12 = tested on: KM12
Hs-578T = tested on: Hs-578T
SNB-75 = tested on: SNB-75
NCI-H23 = tested on: NCI-H23
SW-620 = tested on: SW-620
OVCAR-8 = tested on: OVCAR-8
HL-60 = tested on: HL-60
LOX IMVI = tested on: LOX IMVI
SN12C = tested on: SN12C
SNB-19 = tested on: SNB-19
CAKI-1 = tested on: CAKI-1
SR = tested on: SR
COLO 205 = tested on: COLO 205

Row | SMILES | GI50 (PC-3) | GI50 (HOP-92) | GI50 (RPMI-8226) | GI50 (KM12) | GI50 (Hs-578T) | GI50 (SNB-75) | GI50 (NCI-H23) | GI50 (SW-620) | GI50 (OVCAR-8) | GI50 (HL-60) | GI50 (LOX IMVI) | GI50 (SN12C) | GI50 (SNB-19) | GI50 (CAKI-1) | GI50 (SR) | GI50 (COLO 205)
1 | CN(CCC#N)c1ccc(/C=C2\SC(=S)NC2=O)cc1 | 34.3 µM (inactive) | 22.6 µM (inactive) | 34 µM (inactive) | 40.7 µM (inactive) | 33.3 µM (inactive) | 35 µM (inactive) | 39.5 µM (inactive) | 58.2 µM (inactive) | > 100 µM (inactive) | 24.3 µM (inactive) | 8.2 µM (inactive) | 80.4 µM (inactive) | 71 µM (inactive) | > 100 µM (inactive) | 24.3 µM (inactive) | 48.2 µM (inactive)
2 | CC(=O)Nc1ccc2[nH]c(C(=O)N3CC(CCl)c4c3cc([N+](=O)[O-])c3ccccc43)cc2c1 (centres undefined) | 1.2 µM (inactive) | 2.5 µM (inactive) | 1.02 µM (active) | 1.73 µM (inactive) | 4.26 µM (inactive) | 3.4 µM (inactive) | 8.57 µM (inactive) | 9.23 µM (inactive) | 3.1 µM (inactive) | 1.01 µM (active) | 9.2 µM (inactive) | 7.8 µM (inactive) | > 30.2 µM (inactive) | 3.93 µM (inactive) | 0.349 µM (active) | 4.98 µM (inactive)
3 | O=C1OC(c2ccccc2)=N/C1=C\c1ccc([N+](=O)[O-])cc1 | > 100 µM (inactive) | 16.1 µM (inactive) | 30.2 µM (inactive) | 54.8 µM (inactive) | 24.1 µM (inactive) | 22.9 µM (inactive) | 24.5 µM (inactive) | > 100 µM (inactive) | 11.9 µM (inactive) | 24.4 µM (inactive) | 26.4 µM (inactive) | > 100 µM (inactive) | 40.6 µM (inactive) | 30.7 µM (inactive) | 2.35 µM (inactive) | > 100 µM (inactive)
4 | COC1/C=C/C(C)C(OC)CC(O)/C=C/C(C)C(C(C)C(OC)C(C)CCC(=O)C(C)C(C/C=C/N(C)C=O)OC)OC(=O)/C=C/C=C(\C)CC(OC)C(OC)C2=CC(=O)O[C@@H](C(C)C(OC)C1)[C@H]2O (some centres undefined) | 0.0337 µM (active) | 0.0327 µM (active) | 0.346 µM (active) | 0.0399 µM (active) | 0.0307 µM (active) | 0.034 µM (active) | 0.0512 µM (active) | 0.0361 µM (active) | 0.0514 µM (active) | 0.0299 µM (active) | 0.00791 µM (active) | 0.0498 µM (active) | 0.0519 µM (active) | 0.0148 µM (active) | 0.0617 µM (active) | 0.0205 µM (active)
5 | CN(C)c1nc2nonc2nc1Nc1ccccc1 | > 100 µM (inactive) | > 100 µM (inactive) | > 100 µM (inactive) | – | > 100 µM (inactive) | > 100 µM (inactive) | > 100 µM (inactive) | > 100 µM (inactive) | > 100 µM (inactive) | > 100 µM (inactive) | > 100 µM (inactive) | > 100 µM (inactive) | > 100 µM (inactive) | – | > 100 µM (inactive) | > 100 µM (inactive)
6 | Oc1c(C(Nc2ccccn2)c2ccccc2)ccc2cccnc12 (centres undefined) | 3.39 µM (inactive) | 1.94 µM (inactive) | 2.56 µM (inactive) | 4.59 µM (inactive) | 12.4 µM (inactive) | 6.24 µM (inactive) | 3.6 µM (inactive) | 7.13 µM (inactive) | 4.01 µM (inactive) | 2.28 µM (inactive) | 2.77 µM (inactive) | 1.24 µM (inactive) | 5.51 µM (inactive) | 4.09 µM (inactive) | 2.31 µM (inactive) | 4.74 µM (inactive)
7 | CO/C(=N\N=C(/C)C(F)(F)F)c1ccncc1 | 38.7 µM (inactive) | > 100 µM (inactive) | > 100 µM (inactive) | > 100 µM (inactive) | > 100 µM (inactive) | > 100 µM (inactive) | > 100 µM (inactive) | – | > 100 µM (inactive) | > 100 µM (inactive) | – | > 100 µM (inactive) | > 100 µM (inactive) | > 100 µM (inactive) | > 100 µM (inactive) | > 100 µM (inactive)
8 | C=CCn1c(-c2ccc(Cl)cc2)cs/c1=N\c1ccccc1OC | 32.7 µM (inactive) | > 65 µM (inactive) | 5.6 µM (inactive) | 15.8 µM (inactive) | > 100 µM (inactive) | > 33.3 µM (inactive) | 7.67 µM (inactive) | 60 µM (inactive) | 27 µM (inactive) | 14.9 µM (inactive) | 41.1 µM (inactive) | > 100 µM (inactive) | > 95.5 µM (inactive) | > 45.2 µM (inactive) | 0.195 µM (active) | 35.8 µM (inactive)
9 | COc1cc([C@@H]2c3cc4c(cc3[C@@H](/N=C/c3ccc(C(=O)O[C@@H](C(=O)O[C@H]5C[C@@]6(O)[C@@H](OC(=O)c7ccccc7)[C@@H]7[C@]8(OC(C)=O)CO[C@@H]8C[C@H](O)[C@@]7(C)C(=O)[C@H](OC(C)=O)C(=C5C)C6(C)C)[C@@H](NC(=O)c5ccccc5)c5ccccc5)cc3)[C@H]3COC(=O)[C@H]23)OCO4)cc(OC)c1O | 0.0138 µM (active) | > 36.4 µM (inactive) | < 0.005 µM (active) | 0.0094 µM (active) | 0.0459 µM (active) | < 0.005 µM (active) | 0.869 µM (active) | 0.0297 µM (active) | 0.356 µM (active) | 0.0149 µM (active) | 0.11 µM (active) | 0.0393 µM (active) | 1.22 µM (inactive) | 6.31 µM (inactive) | < 0.005 µM (active) | 0.00891 µM (active)
10 | O=P1(c2ccccc2)C2=CCC=CC2C(c2ccccc2)N1Cc1ccccc1 (centres undefined) | 13.4 µM (inactive) | 12.4 µM (inactive) | 13.3 µM (inactive) | 12.9 µM (inactive) | 19 µM (inactive) | – | 12.3 µM (inactive) | 21 µM (inactive) | 19.6 µM (inactive) | 20.4 µM (inactive) | – | 15.6 µM (inactive) | 22.4 µM (inactive) | 13.7 µM (inactive) | 24.2 µM (inactive) | 15.5 µM (inactive)
11 | Cc1ccc(SC[C@@]2(C(F)F)NC(=O)NC2=O)cc1 | > 100 µM (inactive) | > 100 µM (inactive) | > 100 µM (inactive) | > 100 µM (inactive) | > 100 µM (inactive) | > 100 µM (inactive) | > 100 µM (inactive) | > 100 µM (inactive) | > 100 µM (inactive) | > 100 µM (inactive) | > 100 µM (inactive) | – | > 100 µM (inactive) | > 100 µM (inactive) | > 100 µM (inactive) | > 100 µM (inactive)
12 | O=C1OC(C2Cc3ccc4ccccc4c3C2=O)c2ccccc21 (centres undefined) | 48.8 µM (inactive) | 49.8 µM (inactive) | 25.9 µM (inactive) | 28.3 µM (inactive) | 31.6 µM (inactive) | 32.3 µM (inactive) | – | 37.8 µM (inactive) | 35.6 µM (inactive) | 50 µM (inactive) | 38 µM (inactive) | 93.5 µM (inactive) | 23.2 µM (inactive) | 61.9 µM (inactive) | 35.2 µM (inactive) | > 100 µM (inactive)
13 | COc1cc(C2SCC(=O)N2c2cc(Cl)c(Cl)cc2Cl)cc(OC)c1OC (centres undefined) | 62.8 µM (inactive) | 28.6 µM (inactive) | 32.4 µM (inactive) | 31.3 µM (inactive) | 99.8 µM (inactive) | – | 50.5 µM (inactive) | 82 µM (inactive) | 66.5 µM (inactive) | 28.2 µM (inactive) | 33.7 µM (inactive) | 36.5 µM (inactive) | 51.8 µM (inactive) | 28.7 µM (inactive) | 26.4 µM (inactive) | 39.5 µM (inactive)
14 | C=CCOCn1cc(F)c(=O)[nH]c1=O | > 100 µM (inactive) | – | > 100 µM (inactive) | > 100 µM (inactive) | > 100 µM (inactive) | 31.6 µM (inactive) | > 100 µM (inactive) | > 100 µM (inactive) | > 100 µM (inactive) | > 100 µM (inactive) | > 100 µM (inactive) | > 100 µM (inactive) | > 100 µM (inactive) | > 100 µM (inactive) | > 100 µM (inactive) | > 100 µM (inactive)
15 | CCOP(=O)(C/C=C/Cn1ncc(=O)[nH]c1=O)OCC | > 100 µM (inactive) | > 100 µM (inactive) | > 100 µM (inactive) | > 100 µM (inactive) | > 100 µM (inactive) | > 100 µM (inactive) | – | > 100 µM (inactive) | > 100 µM (inactive) | > 100 µM (inactive) | > 100 µM (inactive) | > 100 µM (inactive) | > 100 µM (inactive) | > 100 µM (inactive) | > 10 µM (inactive) | > 100 µM (inactive)
16 | COc1nc2ccc(COc3ccc(C(=O)NC(CCC(=O)O)C(=O)O)cc3)cc2nc1OC (centres undefined) | > 10 µM (inactive) | > 10 µM (inactive) | > 10 µM (inactive) | > 10 µM (inactive) | > 10 µM (inactive) | > 10 µM (inactive) | > 10 µM (inactive) | > 10 µM (inactive) | – | > 10 µM (inactive) | > 10 µM (inactive) | > 10 µM (inactive) | > 10 µM (inactive) | > 10 µM (inactive) | > 10 µM (inactive) | > 10 µM (inactive)
17 | CCOC(=O)c1ccc2c(=O)n3c(C(=O)OCC)ccc3c(=O)n12 | > 100 µM (inactive) | – | > 100 µM (inactive) | > 100 µM (inactive) | > 100 µM (inactive) | 44.5 µM (inactive) | > 100 µM (inactive) | > 100 µM (inactive) | > 100 µM (inactive) | > 100 µM (inactive) | > 100 µM (inactive) | > 100 µM (inactive) | > 100 µM (inactive) | > 100 µM (inactive) | > 100 µM (inactive) | > 100 µM (inactive)

Source: ChEMBL document CHEMBL1201862, “PubChem BioAssay data set” (2004)
